Measurements reported in patent US8916599B2, “1H-benz imidazole-5-carboxamides as anti-inflammatory agents” (Orexo AB, priority 2008, dated 2014).

Biological target: T1, recombinant human mPGES-1 (Homo sapiens, UniProt O14684)
T1 construct: made in house; host or cells: Rosetta E. coli (microsomal/membrane fraction)
T1 sequence (O14684 1-152): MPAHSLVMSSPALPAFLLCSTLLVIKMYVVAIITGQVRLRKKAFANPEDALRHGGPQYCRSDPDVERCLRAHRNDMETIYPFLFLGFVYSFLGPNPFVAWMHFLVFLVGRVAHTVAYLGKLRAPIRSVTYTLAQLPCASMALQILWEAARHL
Test: mPGES-1 inhibition test (microsomes, PGH2 substrate, HTRF detection of PGE2)
Type: biochemical
Settings: inhibition of mPGES-1 at 1 μM (marked in cell)
Outline: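 First, inhibitor is incubated with microsomal enzyme from Rosetta E. coli in KPi pH 7.4 containing 2.5 mM GSH for 25 minutes at room temperature. Next, PGH2 is added and stopped after one minute with FeCl2 stop solution. Finally, diluted samples undergo HTRF PGE2 quantification.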

| inhibition at 1 µM [%] | SMILES |
| --- | --- |
| 96 | COc1cc2[nH]c(Nc3c(Cl)ccc(C)c3F)nc2cc1C(=O)N[C@H]1CC[C@H](C(F)(F)F)CC1 [Example 622, 2-(6-Chloro-2-fluoro-3-methyl-phenylamino)-6-methoxy-N-(4-trans-trifluoromethyl-cyclohex-1-yl)-1H-benzimidazole-5-carboxamide] |
| 93 | Cc1ccc(Cl)c(Nc2nc3cc(C(=O)NC4CCCCC4)c(F)cc3n2C)c1F [Example 623, 2-(6-Chloro-2-fluoro-3-methyl-phenylamino)-6-fluoro-N-cyclohexyl-1-methyl-1H-benzimidazole-5-carboxamide] |
| 100 | CC(C)Oc1cc2c(cc1C(=O)NC1CCCCC1)nc(Nc1c(Cl)ccc(Cl)c1F)n2C [Example 624, 2-(3,6-Dichloro-2-fluoro-phenylamino)-6-isopropoxy-N-cyclohexyl-1-methyl-1H-benzimidazole-5-carboxamide] |
| 99 | CC(C)Oc1cc2c(cc1C(=O)NC1CCC(C)(C)CC1)nc(Nc1c(Cl)ccc(Cl)c1F)n2C [Example 625, 2-(3,6-Dichloro-2-fluoro-phenylamino)-6-isopropoxy-N-(4,4-dimethyl-cyclohex-1-yl)-1-methyl-1H-benzimidazole-5-carboxamide] |
| 92 | COc1cc2[nH]c(Nc3c(Cl)ccc(C)c3F)nc2cc1C(=O)NC1CCC(C)(C)CC1 [Example 626] |
| 94 | Cc1ccc(Cl)c(Nc2nc3cc(C(=O)NC4CCC(C)(C)CC4)c(F)cc3n2C)c1F [Example 627, 2-(6-Chloro-2-fluoro-3-methyl-phenylamino)-6-fluoro-N-(4,4-dimethyl-cyclohex-1-yl)-1-methyl-1H-benzimidazole-5-carboxamide] |
| 98 | COc1cc2[nH]c(Nc3c(Cl)ccc(C)c3F)nc2cc1C(=O)NC1CCCCC1 [Example 628, 2-(6-Chloro-2-fluoro-3-methyl-phenylamino)-6-methoxy-N-cyclohexyl-1H-benzimidazole-5-carboxamide] |
| 99 | Cc1ccc(Cl)c(Nc2nc3cc(C(=O)N[C@H]4CC[C@H](C(F)(F)F)CC4)c(F)cc3n2C)c1F [Example 629, 2-(6-Chloro-2-fluoro-3-methyl-phenylamino)-6-fluoro-N-(trans-4-trifluoromethyl-cyclohex-1-yl)-1-methyl-1H-benzimidazole-5-carboxamide] |

Same assay, conditions: inhibition of mPGES-1 at 10 μM

| inhibition at 10 µM [%] | SMILES |
| --- | --- |
| 92 | CCOc1cc2[nH]c(Nc3c(Cl)ccc(Cl)c3F)nc2cc1C(=O)N[C@H]1CC[C@H](C(F)(F)F)CC1 [Example 599, 2-(3,6-Dichloro-2-fluoro-phenylamino)-6-ethoxy-N-(trans-4-trifluoromethyl-cyclohex-1-yl)-1H-benzimidazole-5-carboxamide] |
| 94 | CCOc1cc2[nH]c(Nc3c(Cl)ccc(Cl)c3F)nc2cc1C(=O)NC1CCC(C)(C)CC1 [Example 600, 2-(3,6-Dichloro-2-fluoro-phenylamino)-N-(4,4-dimethyl-cyclohexyl)-6-ethoxy-1H-benzimidazole-5-carboxamide] |
| 92 | Cn1c(Nc2c(Cl)ccc(Cl)c2F)nc2cc(C(=O)N[C@H]3CC[C@H](C(F)(F)F)CC3)c(F)cc21 [Example 601, 2-(3,6-Dichloro-2-fluoro-phenylamino)-6-fluoro-N-(trans-4-trifluoromethyl-cyclohex-1-yl)-1-methyl-1H-benzimidazole-5-carboxamide] |
| 100 | COc1cc2[nH]c(Nc3c(Cl)ccc(Cl)c3F)nc2cc1C(=O)Nc1ccc(Br)cc1 [Example 602, 2-(3,6-Dichloro-2-fluoro-phenylamino)-6-methoxy-N-(4-bromophenyl)-1H-benzimidazole-5-carboxamide] |
| 90 | CCOc1cc2[nH]c(Nc3c(Cl)ccc(Cl)c3F)nc2cc1C(=O)Nc1cccc(Cl)c1 [Example 603, 2-(3,6-Dichloro-2-fluoro-phenylamino)-N-(3-chloro-phenyl)-6-ethoxy-1H-benzimidazole-5-carboxamide] |
| 100 | CCOc1cc2[nH]c(Nc3c(Cl)ccc(Cl)c3F)nc2cc1C(=O)Nc1ccc(Br)cc1 [Example 604, 2-(3,6-Dichloro-2-fluoro-phenylamino)-N-(4-bromo-phenyl)-6-ethoxy-1H-benzimidazole-5-carboxamide] |
| 93 | CCOc1cc2c(cc1C(=O)NC1CCC(C(F)(F)F)CC1)nc(Nc1c(Cl)ccc(Cl)c1F)n2C (stereo not drawn) [Example 605, 2-(3,6-Dichloro-2-fluoro-phenylamino)-6-ethoxy-N-(4-trans-trifluoromethyl-cyclohex-1-yl)-1-methyl-1H-benzimidazole-5-carboxamide] |
| 94 | Cn1c(Nc2c(Cl)ccc(Cl)c2F)nc2cc(C(=O)NC3CCC4(CC3)CC4)c(F)cc21 [Example 606, 2-(3,6-Dichloro-2-fluoro-phenylamino)-6-fluoro-N-(spiro[2.5]oct-6-yl)-1-methyl-1H-benzimidazole-5-carboxamide] |
| 97 | CCOc1cc2c(cc1C(=O)NC1CCC(C)(C)CC1)nc(Nc1c(Cl)ccc(Cl)c1F)n2C [Example 607, 2-(3,6-Dichloro-2-fluoro-phenylamino)-6-ethoxy-N-(4,4-dimethyl-cyclohex-1-yl)-1-methyl-1H-benzimidazole-5-carboxamide] |
| 92 | O=C(NC1CCC2(CC1)CC2)c1cc2nc(Nc3c(Cl)ccc(Cl)c3F)[nH]c2cc1F [Example 608, 2-(3,6-Dichloro-2-fluoro-phenylamino)-N-(spiro[2.5]oct-6-yl)-6-fluoro-1H-benzimidazole-5-carboxamide] |
| 99 | CCOc1cc2c(cc1C(=O)NC1CCC3(CC1)CC3)nc(Nc1c(Cl)ccc(Cl)c1F)n2C [Example 609, 2-(3,6-Dichloro-2-fluoro-phenylamino)-6-ethoxy-N-(spiro[2.5]oct-6-yl)-1-methyl-1H-benzimidazole-5-carboxamide] |
| 87 | CC(C)Oc1cc2[nH]c(Nc3c(Cl)ccc(Cl)c3F)nc2cc1C(=O)Nc1ccc(Br)cc1 [Example 610, 2-(3,6-Dichloro-2-fluoro-phenylamino)-N-(4-bromo-phenyl)-6-isopropoxy-1H-benzimidazole-5-carboxamide] |
| 90 | CC(C)Oc1cc2[nH]c(Nc3c(Cl)ccc(Cl)c3F)nc2cc1C(=O)NC1CCCCC1 [Example 611, 2-(3,6-Dichloro-2-fluoro-phenylamino)-6-isopropoxy-N-cyclohexyl-1H-benzimidazole-5-carboxamide] |
| 99 | COc1cc2[nH]c(Nc3c(Cl)ccc(Cl)c3F)nc2cc1C(=O)NC1CCCCC1 [Example 612, 2-(3,6-Dichloro-2-fluoro-phenylamino)-N-cyclohexyl-6-methoxy-1H-benzimidazole-5-carboxamide] |
| 91 | COc1cc2[nH]c(Nc3c(Cl)ccc(Cl)c3F)nc2cc1C(=O)NC1CCC2(CC1)CC2 [Example 613, 2-(3,6-Dichloro-2-fluoro-phenylamino)-N-(spiro[2.5]oct-6-yl)-6-methoxy-1H-benzimidazole-5-carboxamide] |
| 100 | CC(C)Oc1cc2[nH]c(Nc3c(Cl)ccc(Cl)c3F)nc2cc1C(=O)Nc1cccc(Cl)c1 [Example 614, 2-(3,6-Dichloro-2-fluoro-phenylamino)-N-(3-chloro-phenyl)-6-isopropoxy-1H-benzimidazole-5-carboxamide] |
| 96 | CC(C)Oc1cc2[nH]c(Nc3c(Cl)ccc(Cl)c3F)nc2cc1C(=O)NC1CCC2(CC1)CC2 [Example 615, 2-(3,6-Dichloro-2-fluoro-phenylamino)-6-isopropoxy-N-(spiro[2.5]oct-6-yl)-1H-benzimidazole-5-carboxamide] |
| 100 | COc1cc2[nH]c(Nc3c(Cl)ccc(Cl)c3F)nc2cc1C(=O)NC1CCC(C)(C)CC1 [Example 616, 2-(3,6-Dichloro-2-fluoro-phenylamino)-N-(4,4-dimethyl-cyclohex-1-yl)-6-methoxy-1H-benzimidazole-5-carboxamide] |
| 100 | COc1cc2[nH]c(Nc3c(Cl)ccc(Cl)c3F)nc2cc1C(=O)N[C@H]1CC[C@H](C(F)(F)F)CC1 [Example 617, 2-(3,6-Dichloro-2-fluoro-phenylamino)-6-methoxy-N-(4-trans-trifluoromethyl-cyclohex-1-yl)-1H-benzimidazole-5-carboxamide] |
| 91 | CC(C)Oc1cc2[nH]c(Nc3c(Cl)ccc(Cl)c3F)nc2cc1C(=O)NC1CCC(C)(C)CC1 [Example 618, 2-(3,6-Dichloro-2-fluoro-phenylamino)-6-isopropoxy-N-(4,4-dimethyl-cyclohex-1-yl)-1H-benzimidazole-5-carboxamide] |
| 94 | COc1cc2c(cc1C(=O)NC1CCCCC1)nc(Nc1c(Cl)ccc(Cl)c1F)n2C [Example 619, 2-(3,6-Dichloro-2-fluoro-phenylamino)-6-methoxy-N-cyclohexyl-1-methyl-1H-benzimidazole-5-carboxamide] |
| 100 | CC(C)Oc1cc2[nH]c(Nc3c(Cl)ccc(Cl)c3F)nc2cc1C(=O)NC1CCC(C(F)(F)F)CC1 (stereo not drawn) [Example 620, 2-(3,6-Dichloro-2-fluoro-phenylamino)-6-isopropoxy-N-(4-trans-trifluoromethyl-cyclohex-1-yl)-1H-benzimidazole-5-carboxamide] |
| 99 | COc1cc2c(cc1C(=O)NC1CCC(C)(C)CC1)nc(Nc1c(Cl)ccc(Cl)c1F)n2C [Example 621, 2-(3,6-Dichloro-2-fluoro-phenylamino)-6-methoxy-N-(4,4-dimethyl-cyclohex-1-yl)-1-methyl-1H-benzimidazole-5-carboxamide] |
| 100 | COc1cc2[nH]c(Nc3c(Cl)cccc3Cl)nc2cc1C(=O)NCc1ncccc1Cl [Example 630] |
| 100 | COc1cc2c(cc1C(=O)NCc1ncccc1Cl)nc(Nc1c(Cl)cccc1Cl)n2C [Example 631] |
